# Results reported in patent US8361999B2, “Methods of treating cholesterol gallstone disease with ezetimibe” (Pontificia Universidad Catolica de Chile, priority 2005, dated 2013).
# Tests used:
# [1] = tested on: C57BL/6J mice; assay: Plasma cholesterol and plasma lipoprotein profile, protocol #1; assay type: in vivo, mouse
# Protocol: (§1) Surgery and sample harvest. The groups were maintained for 14 days (protocol #1) or 30 days (protocol #2) in the different experimental conditions. During the last three days of the protocols, 24 h depositions were collected from the different groups (pool) to determine the fecal excretion of neutral sterols (cholesterol) and acidic sterols (bile salts). At the end of the time established in the protocols, the mice were anesthetized (between 08:00-10:00 AM) with an intraperitoneal pentobarbital injection in doses of 4.5 mg per 100 gr body weight (Amigo et al., 2000) and subjected to surgery. Standardized surgery consists in an extended […] and visualization of abdominal organs, including liver, biliary tree and gallbladder. First, we performed a resection of the gallbladder (cholecystectomy), with the cystic duct previously ligated (Amigo et al., 2002; Amigo et al., 2000; Amigo et al., 2003b). The gallbladder is removed and visually inspected to determine the presence of gallstones. Then, the gallbladder bile is extracted to analyze the presence of cholesterol crystals in the fresh samples under the microscope with polarized light (20×). Aliquots are stored at −20° C. for subsequent chemical analysis. Afterwards, the common biliary duct is cannulated (biliary fistula) with a P-10 polyethylene cannula to collect bile during 15 minutes, determine bile flow by gravimetry (1 g bile=1 ml; bile flow is expressed as μl/min/g of mouse liver) and for posterior chemical analysis of biliary lipids and glutathione, as specified later. […] Then, the liver is removed, weighted, frozen in liquid nitrogen and stored at −80 for subsequent analyses. The plasma is separated by centrifugation at 1,500 rpm and stored at −80° C. for later analysis. The animal protocols were approved by our institution Ethics Committee and the animals were treated according to international care rules for experimental animals.
# (§2) Intestinal absorption of cholesterol and bile salts. The capacity of Ezetimibe to inhibit cholesterol and bile salt absorption was indirectly determined by quantification of neutral sterols (cholesterol) and acidic sterols (bile acids) present in the feces collected on day 12, 13 and 14 of the experiment (three days). In order to determine cholesterol (neutral sterols) fecal excretion, the feces were dried at 50° C. for three days and then weighted to obtain an average of fecal excretion per day (in grams). The feces were homogenized in a mortar, and 5 ml 2N NaOH:methanol, 1:1 are added per 100 mg (dry weight) aliquots of the homogenate. The sample is vortex and incubated at 60° C. for 1 h for saponification, then it is cooled and 5 ml petroleum ether is added followed by vigorous agitation to obtain the separation of the hydrophobic and hydrophilic phases. The samples are then centrifuged at 1,000 rpm for 10 minutes and the hydrophobic phase (upper layer) is recovered. Second and third extractions are performed by adding 5 ml petroleum ether to the hydrophilic phase. The hydrophobic phases are dried under gaseous nitrogen and the lipids are resuspended in 1 ml chloroform. 50 μl aliquots, in duplicate, are dried at room temperature, and total cholesterol is quantified according to the enzymatic method described above. The values obtained are expressed as μmoles cholesterol/day/100 g of mouse (Miettinen et al., 1965). […]
# [2] = tested on: Bsep; assay: Hepatic expression of bile salts transporter Bsep (Western blot); assay type: in vivo, mouse
# Excerpt: (§3) Expression of Specific Bile Salts (Ntcp, Bsep), Phospholipid (MDR2) and Organic Anions or Glutathione (MRP2); And Determination of Glutathione Synthesis (Gluthamylcystein-Synthetase (GGCS)).
# (§4) Western Blot analysis. We evaluated protein expression levels of the bile salts transporters Ntcp (sinusoidal pole) and Bsep (cannicular pole) by Western blotting in total liver membranes or liver plasma membranes from mice treated with the different diets. Total membranes were obtained from liver fragments homogenized in Tris-HCl pH 7.5, MgCl2 and sucrose. The homogenates were centrifuged at 1,000 g to separate nuclei, and the supernatants were then centrifuged at 100,000 g. The pellet, containing the total membranes, was resuspended in the buffer described above and proteins were quantified by the Bradford method. Aliquots containing 50 μg protein were separated by SDS-PAGE and transfer to nitrocellulose. The membranes were incubated in buffer TBS-T (Tris-HCl pH 7.5, NaCl and Tween-20), milk 5% w/v plus the antibodies to evaluate the different proteins (Bsep, Ntcp). The secondary antibodies were IgG anti rabbit or anti mouse coupled to peroxidase. The protein signals were detected by the ECL method.
# [3] = tested on: Ntcp; assay: Hepatic expression of bile salts transporter Ntcp (Western blot); assay type: in vivo, mouse
# Excerpt: as §3, §4
# [4] = tested on: C57BL/6J mice; assay: Lipid content and cholesterol saturation index in gallbladder bile; assay type: in vivo, mouse; conditions: for Gallbladder Bile Bile salts / Gallbladder Bile Cholesterol / Gallbladder Bile Colesterol Saturation Index / Gallbladder Bile Phospholipids: 14 days
# Protocol: as §1
# as §2, with “1965). In order to determine fecal excretion of bile acids the mice feces were collected during three days (days 12-14), dried at 50° C. for one week and weighted. The feces are then homogenized in a mortar; (^14C) cholic acid, 200,000 cpm is added to 1 g of the homogenate to determine the degree of recovery. The samples are then mixed with NaBr, NaOH and HCl, dissolved in ethanol and incubated at 120° C. for 8 h in a reflux system. The hydrolyzed fecal samples are resuspended in NaOH and dried under gaseous N2. The pellet obtained is resuspended in ethanol and run through Sep-Pak columns to eliminate all bile salts contaminants.” for “1965).”
# [5] = tested on: cholesterol absorption; conditions: relative to SCH 48461; cited from earlier work
# [6] = tested on: cholesterol and bile salt absorption; assay: Intestinal absorption of cholesterol and bile salts by fecal excretion of neutral and acidic sterols; assay type: in vivo, mouse; conditions: for Fecal excretion of bile acids / Fecal excretion of neutral sterols: pooled feces; for Fecal excretion of bile acids: days 12-14; for Fecal excretion of neutral sterols: last three days of 14
# Protocol: as §1
# as §2, with “1965). In order to determine fecal excretion of bile acids the mice feces were collected during three days (days 12-14), dried at 50° C. for one week and weighted. The feces are then homogenized in a mortar; (^14C) cholic acid, 200,000 cpm is added to 1 g of the homogenate to determine the degree of recovery. The samples are then mixed with NaBr, NaOH and HCl, dissolved in ethanol and incubated at 120° C. for 8 h in a reflux system. The hydrolyzed fecal samples are resuspended in NaOH and dried under gaseous N2. The pellet obtained is resuspended in ethanol and run through Sep-Pak columns to eliminate all bile salts contaminants.” for “1965).”
structure (smiles),measurement,setting,value
"O=C1[C@H](CC[C@H](O)c2ccc(F)cc2)[C@@H](c2ccc(O)cc2)N1c1ccc(F)cc1 [Ezetimibe, (−)-1-(4-fluorophenyl)-(3R)-[3-(4-fluorophenyl)-(.S)-hydroxypropyl]-(4S)-(4-hydroxyphenyl)-2-azetidinone]",Plasma Cholesterol,"[1]; Chow + Ezetimibe, 14 days",86.21 ± 13.8 mg/dL
same,Plasma Cholesterol,"[1]; Lithogenic + Ezetimibe, 14 days",161.38 ± 38.96 mg/dL
same,"plasma lipoprotein profile, ezetimibe groups vs controls","[1]; chow and lithogenic diets, 14 days (FIG. 2)",did not show significant differences
same,"concentration of total cholesterol in plasma, with vs without ezetimibe","[1]; control diet, 14 days",similar
same,"increase of plasma cholesterol concentration, with vs without ezetimibe","[1]; lithogenic diet, 14 days",similarly
same,"hepatic expression of Bsep, lithogenic diet plus Ezetimibe vs lithogenic diet",[2]; 14 days,no significant differences
same,Bsep hepatic protein expression level with Ezetimibe,"[2]; FIG. 6 A, on both diets",does not show significant changes
same,"hepatic expression of Ntcp, lithogenic diet plus Ezetimibe vs lithogenic diet",[3]; 14 days,no significant differences
same,decrease of Ntcp protein expression level on a lithogenic diet,"[3]; FIG. 6 B, lithogenic diet with Ezetimibe vs plus water",significantly attenuated
same,Gallbladder Bile Bile salts,[4]; Chow + Ezetimibe,65.00 mmol/L
same,Gallbladder Bile Cholesterol,[4]; Chow + Ezetimibe,1.19 mmol/L
same,Gallbladder Bile Colesterol Saturation Index,[4]; Chow + Ezetimibe,51.7%
same,Gallbladder Bile Phospholipids,[4]; Chow + Ezetimibe,11.62 mmol/L
same,Gallbladder Bile Bile salts,[4]; Lithogenic + Ezetimibe,70.37 mmol/L
same,Gallbladder Bile Cholesterol,[4]; Lithogenic + Ezetimibe,1.35 mmol/L
same,Gallbladder Bile Colesterol Saturation Index,[4]; Lithogenic + Ezetimibe,53.2%
same,Gallbladder Bile Phospholipids,[4]; Lithogenic + Ezetimibe,12.92 mmol/L
same,"changes in cholesterol content, bile salts or lecitine in gallbladder bile",[4]; control diet,did not induce significant changes
same,"cholesterol saturation index, with vs without Ezetimibe",[4]; control diet,similar
same,decrease of cholesterol content in the gallbladder bile,[4]; lithogenic diet,50-60%
same,reduction in the cholesterol saturation index,[4]; lithogenic diet,50%
same,inhibitory activity in cholesterol absorption higher than predecessor analog (SCH 48461),[5],400 times
same,Fecal excretion of bile acids,[6]; Chow + Ezetimibe,55.42 μmol/day/100 g mouse
same,Fecal excretion of neutral sterols,[6]; Chow + Ezetimibe,19.98 μmol/day/100 g mouse
same,Fecal excretion of bile acids,[6]; Lithogenic + Ezetimibe,909.20 μmol/day/100 g mouse
same,Fecal excretion of neutral sterols,[6]; Lithogenic + Ezetimibe,165.79 μmol/day/100 g mouse
same,effect on fecal excretion of bile salts,[6]; both on control and lithogenic diets,does not significantly affect
same,increment of fecal excretion of neutral sterols vs control diet without Ezetimibe,[6]; control diet,37%
same,fecal excretion of neutral sterols (cholesterol) higher than in mice not treated with Ezetimibe,[6]; lithogenic diet,55%
